“Also recorded” adds a separate entry of the source. Like-named read-outs stand apart in the source and are kept apart here.
Experiments:
[1] = biological target: T1, DPP-4 (Homo sapiens, UniProt P27487); assay: DPP-4 inhibition assay (glycyl proline p-nitroaniline substrate); type: biochemical; settings: average of three independent experiments, each in duplicate; 37 °C, 30 min
T1 construct: purchased PROSPEC ENZ-375
Experimental: The enzyme and substrate were dissolved in Tris-HCl buffer (0.1 M, pH 8.0). The enzymatic reaction mixture that was composed of DPP-4 (0.01 U, 50 μL), substrate (2.2 mM, 50 μL), test compounds (10 μL), and Tris-HCl buffer (90 μL) was incubated at 37 °C for 30 min. […] The results are the average of three independent experiments, each being performed in duplicate.

[2] = biological target: T2, α-glucosidase from baker’s yeast (Saccharomyces cerevisiae, UniProt P53341); assay: biochemical; type: biochemical; settings: for fold higher α-glucosidase inhibitory activity than 3: compared with compound 3; for fold higher α-glucosidase inhibitory activity than 5a: compared with compound 5a
T2 construct: purchased Sigma G5003
T2 sequence (P53341 whole entry): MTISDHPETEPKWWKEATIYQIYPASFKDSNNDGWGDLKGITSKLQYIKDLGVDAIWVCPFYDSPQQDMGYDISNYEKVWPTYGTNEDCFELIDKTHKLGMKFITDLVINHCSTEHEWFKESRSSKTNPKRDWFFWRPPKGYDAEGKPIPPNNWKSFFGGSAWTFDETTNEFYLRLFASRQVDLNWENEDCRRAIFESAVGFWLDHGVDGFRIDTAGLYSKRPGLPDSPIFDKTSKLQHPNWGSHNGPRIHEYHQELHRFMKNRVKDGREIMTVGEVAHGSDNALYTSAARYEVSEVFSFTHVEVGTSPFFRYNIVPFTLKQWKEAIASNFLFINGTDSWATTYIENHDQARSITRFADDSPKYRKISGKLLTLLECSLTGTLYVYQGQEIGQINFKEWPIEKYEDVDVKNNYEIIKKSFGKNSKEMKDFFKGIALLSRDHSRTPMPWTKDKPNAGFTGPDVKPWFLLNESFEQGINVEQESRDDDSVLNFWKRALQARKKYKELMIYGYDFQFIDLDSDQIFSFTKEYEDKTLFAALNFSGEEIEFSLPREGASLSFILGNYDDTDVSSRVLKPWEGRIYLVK
Experimental: The commercially available α-glucosidase from baker’s yeast (Sigma, G5003) was selected as the target protein while using p-nitrophenyl-α-D-glucopyranoside (pNGP, Sigma, N1377) as the substrate. […] The enzyme and substrate were dissolved in potassium phosphate buffer (0.05 M, pH 6.8). The enzymatic reaction mixture that was composed of α-glucosidase (0.04 U, 20 μL), substrate (0.5 mM, 30 μL), test compounds (20 μL), and potassium phosphate buffer (130 μL) was incubated at 37 °C for 30 min. The enzymatic activity was detected by spectrophotometer at the wavelength of 405 nm. The results are the average of three independent experiments, each being performed in duplicate.

[3] = biological target: T3, α-glucosidase (Saccharomyces cerevisiae, UniProt P53341); assay: Kinetics of enzyme inhibition (velocity vs enzyme plots, Lineweaver-Burk); type: biochemical, baker’s yeast; settings: for reversibility of α-glucosidase inhibition: plots of velocity versus enzyme concentration at different inhibitor concentrations
T3 construct: purchased Sigma G5003
T3 sequence (P53341 whole entry): as above
Experimental: The commercially available α-glucosidase from baker’s yeast (Sigma, G5003) was selected as the target protein while using p-nitrophenyl-α-D-glucopyranoside (pNGP, Sigma, N1377) as the substrate. The compounds and acarbose were dissolved in DMSO. The enzyme and substrate were dissolved in potassium phosphate buffer (0.05 M, pH 6.8). The enzymatic reaction mixture that was composed of α-glucosidase (0.04 U, 20 μL), substrate (0.5 mM, 30 μL), test compounds (20 μL), and potassium phosphate buffer (130 μL) was incubated at 37 °C for 30 min. The enzymatic activity was detected by spectrophotometer at the wavelength of 405 nm. The results are the average of three independent experiments, each being performed in duplicate.
The kinetics of enzyme inhibition was performed with the same assays detailed above, in the presence of different concentrations of compounds 4d and 5d, substrate, and enzyme, respectively. The inhibitory kinetics of 4d and 5d on α-glucosidase was analyzed using the Lineweaver-Burk plot of the substrate concentration and velocity.

[4] = test system: HepG2 cells; assay: Glucose consumption assay in HepG2 cells; type: cell-based, human; settings: 24 h
Experimental: Briefly, the HepG2 cells were cultured in Dulbecco’s-modified Eagle’s medium (DMEM) containing 25 mmol/L D-glucose, 10% heat-inactivated fetal bovine serum (FBS), 10 U/mL penicillin, and […] streptomycin at 37 °C, 5% CO2 atmosphere. The culture solution was replaced every other day and then passaged once for 2–3 d. The cells were seeded into 96-well plate with twenty-four wells left as blanks. After reaching 70–80% confluence, the cells were washed with PBS twice and the medium was replaced by DMEM containing 25 mmol/L D-glucose to hunger for 24 h. The cells were washed with PBS twice and the medium was replaced by RPMI-1640 containing 11.1 mmol/L glucose that was supplemented with 0.2% bovine serum albumin (BSA). To the medium was then added 1 mmol/L metformin or purified product at different concentrations, and DMSO was used as the blank control. The glucose concentration in the medium […] 24 h treatment. Glucose consumption = glucose concentrations of blank wells − glucose concentrations of plated wells. The sulforhodamine B (SRB) assay was used to adjust the glucose consumption values. The SRB assay is based on the measurement of cellular protein content. […] Bound SRB was solubilized with 150 μL Tris-base (10 mmol/L, pH 10.5) solution for OD determination at 546 nm while using a microplate reader.

[5] = average of three independent experiments, each in duplicate, 37 °C, 30 min, read-out: IC50 α-Glucosidase

T1 sequence (P27487 whole entry): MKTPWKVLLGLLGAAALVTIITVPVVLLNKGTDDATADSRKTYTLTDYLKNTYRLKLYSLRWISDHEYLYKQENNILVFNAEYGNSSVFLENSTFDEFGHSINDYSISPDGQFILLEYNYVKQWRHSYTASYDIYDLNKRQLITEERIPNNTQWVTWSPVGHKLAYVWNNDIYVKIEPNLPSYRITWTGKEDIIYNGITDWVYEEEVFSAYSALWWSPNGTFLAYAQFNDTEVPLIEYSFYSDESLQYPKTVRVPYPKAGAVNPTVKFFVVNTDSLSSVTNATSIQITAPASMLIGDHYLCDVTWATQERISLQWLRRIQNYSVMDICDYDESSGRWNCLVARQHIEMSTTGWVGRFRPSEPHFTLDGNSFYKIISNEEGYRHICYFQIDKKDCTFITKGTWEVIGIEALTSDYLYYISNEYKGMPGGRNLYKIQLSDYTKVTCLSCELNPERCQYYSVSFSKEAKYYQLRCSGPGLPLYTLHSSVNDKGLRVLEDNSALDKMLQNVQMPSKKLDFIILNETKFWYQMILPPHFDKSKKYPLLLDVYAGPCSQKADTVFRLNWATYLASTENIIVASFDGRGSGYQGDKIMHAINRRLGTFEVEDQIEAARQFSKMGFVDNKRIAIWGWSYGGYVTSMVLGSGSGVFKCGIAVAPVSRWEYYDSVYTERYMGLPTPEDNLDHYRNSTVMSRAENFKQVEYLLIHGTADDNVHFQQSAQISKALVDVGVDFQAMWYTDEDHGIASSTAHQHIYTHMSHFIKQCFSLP

Row | IC50 [2, 5] [nM] | Molecule | IC50 [1] [µM] | IC50 [2] [nM] | also measured
1 | 5910 ± 190 | CC1(C)C=Cc2c(O)c(Cc3c(O)c4c(c(C(=O)C=Cc5ccccc5)c3O)OC(C)(C)C=C4)c(O)c(C(=O)C=Cc3ccccc3)c2O1 (stereo in doubt) [Compound 3, (2Z,2’Z)-1,1’-(Methylenebis(5,7-dihydroxy-2,2-dimethyl-2H-chromene-6,8-diyl))bis (3-phenylprop-2-en-1-one)] | > 50 |  | 
2 |  | COc1ccc(C=CC(=O)c2c(O)c(Cc3c(O)c4c(c(C(=O)C=Cc5ccc(OC)cc5)c3O)OC(C)(C)C=C4)c(O)c3c2OC(C)(C)C=C3)cc1 (stereo in doubt) [Compound 4a, (2Z,2’Z)-1,1’-(Methylenebis(5,7-dihydroxy-2,2-dimethyl-2H-chromene-6,8-diyl))bis (3-(4-methoxyphenyl)prop-2-en-1-one)] | > 50 | 6410 ± 330 | 
3 |  | CC1(C)C=Cc2c(O)c(Cc3c(O)c4c(c(C(=O)C=Cc5ccc(F)cc5)c3O)OC(C)(C)C=C4)c(O)c(C(=O)C=Cc3ccc(F)cc3)c2O1 (stereo in doubt) [Compound 4b, (2Z,2’Z)-1,1’-(Methylenebis(5,7-dihydroxy-2,2-dimethyl-2H-chromene-6,8-diyl))bis (3-(4-fluoro phenyl)prop-2-en-1-one)] | > 50 | 8710 ± 540 | 
4 |  | CC1(C)C=Cc2c(O)c(Cc3c(O)c4c(c(C(=O)C=Cc5ccc(O)cc5)c3O)OC(C)(C)C=C4)c(O)c(C(=O)C=Cc3ccc(O)cc3)c2O1 (stereo in doubt) [Compound 5a, (2Z,2’Z)-1,1’-(Methylenebis(5,7-dihydroxy-2,2-dimethyl-2H-chromene-6,8-diyl))bis (3-(4-hydroxyphenyl)prop-2-en-1-one)] | > 50 | 510 ± 190 | fold higher α-glucosidase inhibitory activity than 3 [2]: 10 fold
5 |  | CC1(C)C=Cc2c(O)c(Cc3c(O)c4c(c(C(=O)C=Cc5ccc(O)cc5O)c3O)OC(C)(C)C=C4)c(O)c(C(=O)C=Cc3ccc(O)cc3O)c2O1 (stereo in doubt) [Compound 5b, (2Z,2’Z)-1,1’-(Methylenebis(5,7-dihydroxy-2,2-dimethyl-2H-chromene-6,8-diyl))bis (3-(2,4-dihydroxyphenyl)prop-2-en-1-one)] | > 50 | 240 ± 20 | fold higher α-glucosidase inhibitory activity than 5a [2]: two-fold
6 |  | CC1(C)C=Cc2c(O)c(Cc3c(O)c4c(c(C(=O)C=Cc5cccc(O)c5O)c3O)OC(C)(C)C=C4)c(O)c(C(=O)C=Cc3cccc(O)c3O)c2O1 (stereo in doubt) [Compound 5c, (2Z,2’Z)-1,1’-(Methylenebis(5,7-dihydroxy-2,2-dimethyl-2H-chromene-6,8-diyl))bis (3-(2,3-dihydroxyphenyl)prop-2-en-1-one)] | > 50 | 1070 ± 60 | 
7 |  | CC1(C)C=Cc2c(O)c(Cc3c(O)c4c(c(C(=O)C=Cc5ccc(O)c(O)c5O)c3O)OC(C)(C)C=C4)c(O)c(C(=O)C=Cc3ccc(O)c(O)c3O)c2O1 (stereo in doubt) [Compound 5d, (2Z,2’Z)-1,1’-(Methylenebis(5,7-dihydroxy-2,2-dimethyl-2H-chromene-6,8-diyl))bis (3-(2,3,4-trihydroxyphenyl)prop-2-en-1-one)] | 26.19 ± 0.22 | 120 ± 20 | type of α-glucosidase inhibition ([3]; Lineweaver-Burk plot, 0, 0.2, 0.5 μM): mixed competitive α-glucosidase inhibitor; also recorded: mixed competitive inhibitory mode; reversibility of α-glucosidase inhibition [3]: irreversibly; also recorded: irreversible α-glucosidase inhibitors; fold higher α-glucosidase inhibitory activity than 5a [2]: four-fold; glucose consumption ([4]; 0.04 μM): significantly promote glucose consumption; glucose consumption ([4]; 0.2 μM, metformin 1 mM positive control): significantly promote glucose consumption; also recorded: comparable to that of metformin
8 | 22400 ± 3100 | CC(C)=CCc1c(O)cc(O)c(C(=O)/C=C/c2ccc(O)cc2)c1O [Compound 1, Desmethylxanthohumol, reference compound] | > 50 |  | 
9 | 9740 ± 730 | CC1(C)C=Cc2c(O)cc(O)c(C(=O)/C=C/c3ccc(O)cc3)c2O1 [Compound 2, dehydrocyclodesmethylxanthohumol, reference compound] | > 50 |  | 
10 | 7110 ± 50 | CC(=O)c1c(O)c(Cc2c(O)c3c(c(C(C)=O)c2O)OC(C)(C)C=C3)c(O)c2c1OC(C)(C)C=C2 [Compound 9, 1,1’-(Methylenebis(5,7-dihydroxy-2,2-dimethyl-2H-chromene-6,8-diyl))bis (ethan-1-one)] | > 50 |  | 
11 |  | COc1c2c(c(C(=O)/C=C\c3ccccc3)c(O)c1Cc1c(O)c(C(=O)/C=C\c3ccccc3)c3c(c1OC)C=CC(C)(C)O3)OC(C)(C)C=C2 [Compound 12, (2Z,2’Z)-1,1’-(Methylenebis(7-hydroxy-5-methoxy-2,2-dimethyl-2H-chromene-6,8-diyl))bis(3-phenylprop-2-en-1-one)] | > 50 | 3390 ± 130 | 
12 |  | COc1c2c(c(C(=O)/C=C\c3ccccc3)c(O)c1Cc1c(OC)c3c(c(C(=O)/C=C\c4ccccc4)c1OC)OC(C)(C)C=C3)OC(C)(C)C=C2 [Compound 13, (Z)-1-(6-((5,7-Dimethoxy-2,2-dimethyl-8-((Z)-3-phenylacryloyl)-2H-chromen-6-yl)methyl)-7-hydroxy-5-methoxy-2,2-dimethyl-2H-chromen-8-yl)-3-phenylprop-2-en-1-one] | > 50 | 370 ± 40 | fold enhancement of α-glucosidase inhibitory activity compared to 12 ([2]; compared with compound 12): 10 fold

Row | Molecule | IC50 [2, 5] [nM] | IC50 [1] [µM] | IC50 [2] [nM] | also measured
13 | CC1(C)C=Cc2c(O)c(Cc3c(O)c4c(c(C(=O)C=Cc5ccsc5)c3O)OC(C)(C)C=C4)c(O)c(C(=O)C=Cc3ccsc3)c2O1 (stereo in doubt) [Compound 4d, (2Z,2’Z)-1,1’-(Methylenebis(5,7-dihydroxy-2,2-dimethyl-2H-chromene-6,8-diyl))bis (3-(thiophen-3-yl)prop-2-en-1-one)] | 220 ± 70 | 23.59 ± 0.14 |  | reversibility of α-glucosidase inhibition [3]: irreversibly; also recorded: irreversible α-glucosidase inhibitors; fold higher α-glucosidase inhibitory activity than 3 [2]: 26 fold
14 | (2Z,2’Z)-1,1’-(Methylenebis(5,7-dihydroxy-2,2-dimethyl-2H-chromene-6,8-diyl))bis (3-(furan-3-yl)prop-2-en-1-one) [Compound 4c] | 1840 ± 410 | 21.48 ± 0.09 |  | fold higher α-glucosidase inhibitory activity than 3 [2]: three-fold
